We go through five cell lines from the supplement of paper PMC10307832.

What all share (experiment): relative viability (nuclei count vs DMSO), 5 days (fraction); higher = more cells survive
Compound in the assay “AZD5582 + Pictilisib”: C[C@@H](C(=O)N[C@@H](C1CCCCC1)C(=O)N2CCC[C@H]2C(=O)N[C@@H]3[C@@H](CC4=CC=CC=C34)OCC#CC#CCO[C@@H]5CC6=CC=CC=C6[C@@H]5NC(=O)[C@@H]7CCCN7C(=O)[C@H](C8CCCCC8)NC(=O)[C@H](C)NC)NC [AZD5582] + CS(=O)(=O)N1CCN(Cc2cc3nc(-c4cccc5[nH]ncc45)nc(N4CCOCC4)c3s2)CC1 [Pictilisib] (partner 1 µM)
In a few lines:
(§1)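 Lung cancer cell lines in 1536-well plates got either a single drug or a fixed anchor-drug dose together with five library-drug doses (not always all listed) in √10 steps, by pin tool, on the day after seeding. Nuclei were counted after 5 days, and relative viability is the treated-to-vehicle ratio of nuclei counts. Values are medians of duplicate plates.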

Compound in the assay “AZD5582 + Crizotinib”: C[C@@H](C(=O)N[C@@H](C1CCCCC1)C(=O)N2CCC[C@H]2C(=O)N[C@@H]3[C@@H](CC4=CC=CC=C34)OCC#CC#CCO[C@@H]5CC6=CC=CC=C6[C@@H]5NC(=O)[C@@H]7CCCN7C(=O)[C@H](C8CCCCC8)NC(=O)[C@H](C)NC)NC [AZD5582] + C[C@@H](Oc1cc(-c2cnn(C3CCNCC3)c2)cnc1N)c1c(Cl)ccc(F)c1Cl [Crizotinib] (partner 1 µM)
In a few lines:
as §1

Compound in the assay “AZD5582 + OSI-027”: C[C@@H](C(=O)N[C@@H](C1CCCCC1)C(=O)N2CCC[C@H]2C(=O)N[C@@H]3[C@@H](CC4=CC=CC=C34)OCC#CC#CCO[C@@H]5CC6=CC=CC=C6[C@@H]5NC(=O)[C@@H]7CCCN7C(=O)[C@H](C8CCCCC8)NC(=O)[C@H](C)NC)NC [AZD5582] + COc1cccc2cc(-c3nc([C@H]4CC[C@H](C(=O)O)CC4)n4ncnc(N)c34)[nH]c12 [OSI-027] (partner 0.5 µM)
In a few lines:
as §1

Compound in the assay “AZD5582 + Linsitinib”: C[C@@H](C(=O)N[C@@H](C1CCCCC1)C(=O)N2CCC[C@H]2C(=O)N[C@@H]3[C@@H](CC4=CC=CC=C34)OCC#CC#CCO[C@@H]5CC6=CC=CC=C6[C@@H]5NC(=O)[C@@H]7CCCN7C(=O)[C@H](C8CCCCC8)NC(=O)[C@H](C)NC)NC [AZD5582] + C[C@]1(O)C[C@@H](c2nc(-c3ccc4ccc(-c5ccccc5)nc4c3)c3c(N)nccn32)C1 [Linsitinib] (partner 1 µM)
In a few lines: as §1

Compound in the assay “AZD5582 + Tozasertib”: C[C@@H](C(=O)N[C@@H](C1CCCCC1)C(=O)N2CCC[C@H]2C(=O)N[C@@H]3[C@@H](CC4=CC=CC=C34)OCC#CC#CCO[C@@H]5CC6=CC=CC=C6[C@@H]5NC(=O)[C@@H]7CCCN7C(=O)[C@H](C8CCCCC8)NC(=O)[C@H](C)NC)NC [AZD5582] + Cc1cc(Nc2cc(N3CCN(C)CC3)nc(Sc3ccc(NC(=O)C4CC4)cc3)n2)n[nH]1 [Tozasertib] (partner 0.1 µM)
In a few lines: as §1

Take NCI-H1792: the relative viability with AZD5582 + Pictilisib (first compound 0.001581 µM) is 0.278; in the assay with AZD5582 + Pictilisib (first compound 0.005 µM), 0.345; with AZD5582 + Pictilisib (first compound 0.01581 µM), 0.28; with AZD5582 + Pictilisib (first compound 0.05 µM), 0.35; with AZD5582 + Crizotinib (first compound 0.001581 µM) it was 0.903; with AZD5582 + Crizotinib (first compound 0.005 µM), 1.01. For the same cell line, the relative viability was 0.908 with AZD5582 + Crizotinib (first compound 0.01581 µM); 1.08 in the assay with AZD5582 + Crizotinib (first compound 0.05 µM); 0.679 in the assay with AZD5582 + OSI-027 (first compound 0.001581 µM); 0.872 with AZD5582 + OSI-027 (first compound 0.005 µM); 0.73 in the assay with AZD5582 + OSI-027 (first compound 0.01581 µM); 1.06 with AZD5582 + OSI-027 (first compound 0.05 µM). Also, the relative viability in the assay with AZD5582 + Linsitinib (first compound 0.001581 µM) was found to be 0.49; in the assay with AZD5582 + Linsitinib (first compound 0.005 µM) it was 0.588; with AZD5582 + Linsitinib (first compound 0.01581 µM), 0.516; with AZD5582 + Linsitinib (first compound 0.05 µM), 0.792.

Take NCI-H1793: the relative viability with AZD5582 + Pictilisib (first compound 0.001581 µM) stood at 0.288; in the assay with AZD5582 + Pictilisib (first compound 0.005 µM), 0.311; with AZD5582 + Pictilisib (first compound 0.01581 µM), 0.299; with AZD5582 + Pictilisib (first compound 0.05 µM) it was 0.397; with AZD5582 + OSI-027 (first compound 0.001581 µM), 0.2; with AZD5582 + OSI-027 (first compound 0.005 µM), 0.301. Besides, the relative viability with AZD5582 + OSI-027 (first compound 0.01581 µM) worked out at 0.212; with AZD5582 + OSI-027 (first compound 0.05 µM), 0.185; with AZD5582 + Linsitinib (first compound 0.001581 µM), 0.816; with AZD5582 + Linsitinib (first compound 0.005 µM), 1.01; with AZD5582 + Linsitinib (first compound 0.01581 µM), 0.752; with AZD5582 + Linsitinib (first compound 0.05 µM), 1.11. Moreover, the relative viability came to 0.241 with AZD5582 + Tozasertib (first compound 0.001581 µM), 0.486 with AZD5582 + Tozasertib (first compound 0.005 µM), 0.303 in the assay with AZD5582 + Tozasertib (first compound 0.01581 µM) and 0.454 with AZD5582 + Tozasertib (first compound 0.05 µM).

Regarding NCI-H2170, the relative viability with AZD5582 + Pictilisib (first compound 0.001581 µM) is 0.3; with AZD5582 + Pictilisib (first compound 0.005 µM), 0.352; with AZD5582 + Pictilisib (first compound 0.01581 µM), 0.28; in the assay with AZD5582 + Pictilisib (first compound 0.05 µM), 0.319; with AZD5582 + Crizotinib (first compound 0.001581 µM), 1.1; with AZD5582 + Crizotinib (first compound 0.005 µM), 1.25. The relative viability is 1.18 with AZD5582 + Crizotinib (first compound 0.01581 µM); 1.47 with AZD5582 + Crizotinib (first compound 0.05 µM); 0.653 with AZD5582 + OSI-027 (first compound 0.001581 µM); 0.759 with AZD5582 + OSI-027 (first compound 0.005 µM); 0.683 with AZD5582 + OSI-027 (first compound 0.01581 µM); 0.866 in the assay with AZD5582 + OSI-027 (first compound 0.05 µM). In addition, the relative viability in the assay with AZD5582 + Tozasertib (first compound 0.001581 µM) turned out to be 0.647; with AZD5582 + Tozasertib (first compound 0.005 µM), 0.716; with AZD5582 + Tozasertib (first compound 0.01581 µM) it was 0.746; with AZD5582 + Tozasertib (first compound 0.05 µM), 0.829.

NCI-H2342: the relative viability worked out at 0.518 with AZD5582 + OSI-027 (first compound 0.001581 µM); 0.587 with AZD5582 + OSI-027 (first compound 0.005 µM); 0.509 with AZD5582 + OSI-027 (first compound 0.01581 µM); 0.659 with AZD5582 + OSI-027 (first compound 0.05 µM); 0.493 in the assay with AZD5582 + Tozasertib (first compound 0.001581 µM); 0.585 with AZD5582 + Tozasertib (first compound 0.005 µM). The relative viability turned out to be 0.43 with AZD5582 + Tozasertib (first compound 0.01581 µM) and 0.542 in the assay with AZD5582 + Tozasertib (first compound 0.05 µM).

As for SW 900, the relative viability was found to be 0.412 with AZD5582 + OSI-027 (first compound 0.001581 µM); 0.559 with AZD5582 + OSI-027 (first compound 0.005 µM); 0.518 in the assay with AZD5582 + OSI-027 (first compound 0.01581 µM); 0.571 with AZD5582 + OSI-027 (first compound 0.05 µM); 0.481 with AZD5582 + Tozasertib (first compound 0.001581 µM); 0.365 in the assay with AZD5582 + Tozasertib (first compound 0.005 µM). In addition, the relative viability with AZD5582 + Tozasertib (first compound 0.01581 µM) is 0.722; in the assay with AZD5582 + Tozasertib (first compound 0.05 µM), 0.468.
